Reference: PMC3268023, “Simple Preparation of Pacific Cod Trypsin for Enzymatic Peptide Synthesis” (Journal of Amino Acids, 2011)
Counter-ions that a name gives are not always drawn.

Legend:
[1] = system: Pacific cod trypsin (PcT); assay: inverse substrate hydrolysis, absorbance at […] nm, Lineweaver-Burk; assay type: biochemical, Gadus macrocephalus; conditions: 50 mM Tris-HCl pH 8.0, 10 mM CaCl2, 30°C, substrate in DMSO (10 of 200 μL)
[2] = system: Pacific cod trypsin (PcT); assay: p-nitroaniline release at […] nm, Lineweaver-Burk; assay type: biochemical, Gadus macrocephalus; conditions: 50 mM Tris-HCl pH 8.0, 10 mM CaCl2, 30°C, substrate in DMSO (10 of 200 μL)

| SMILES | Km [1] [µM] | Km [2] [µM] |
| --- | --- | --- |
| C[C@H](NC(=O)OC(C)(C)C)C(=O)Oc1ccc(C(=N)N)cc1 [5a, N-(tert-butoxycarbonyl)-L-alanine p-amidinophenyl esters] | 1.5 |  |
| N=C(N)NCCC[C@H](NC(=O)c1ccccc1)C(=O)Nc1ccc([N+](=O)[O-])cc1 [BAPA, N-benzoyl-L-arginine p-nitroanilide hydrochloride] |  | 37 |
